Source: patent US20130123248A1, “PHARMACOLOGICAL MODULATION OF POSITIVE AMPA RECEPTOR MODULATOR EFFECTS ON NEUROTROPHIN EXPRESSION” (The Regents of the University of California, priority 2006, published 2013)
Entries after “also recorded” stand apart in the source; their conditions may differ.

What was measured:
BDNF mRNA = BDNF mRNA in situ hybridization in cultured rat hippocampal slices; type: cell-based; settings: for hybridization to BDNF mRNA, principal hippocampal cell layers, entorhinal cortex, neocortex: CX614 50 μM
Description: Cultured hippocampal slices were prepared from rat pups (9 d postnatal) essentially as described by Lauterborn et al. (Lauterborn et al., 2000, J Neurosci 20(1):8-21). Slices were explanted onto Millicel-CM biomembrane inserts (Millipore, Bedford, Mass.; 6 slices/membrane) in a 6-well culture cluster plate (Corning, Cambridge, Mass.) containing sterile media (1 ml/well) consisting of minimum essential media, 30 mM dextrose, 30 mM HEPES, 5 mM Na2HCO3, 3 mM glutamine, 0.5 mM ascorbic acid, 2 mM CaCl2, 2.5 mM MgSO4, 1 mg/l insulin and 20% horse serum (pH 7.2; all reagents from Sigma, St. Louis, Mo.) and maintained for 10-18 d in a humidified incubator at 37° C. in 5% CO2. Media was changed three times/week. All experiments with the […]® (Cortex Pharmaceuticals) and mGluR5 antagonist (gift from FRAXA Research Foundation) began on days 11-12 in culture and were performed essentially as described by Lauterborn et al. (Lauterborn et al., 2000, J Neurosci 20(1):8-21) and Huber et al. (Huber et al., 2002, Proc Natl Acad Sci USA 99(11):7746-50). […]® were dissolved in 100% dimethylsulfoxide (DMSO; Sigma) and stored at -20° C. MPEP was dissolved in 100% DMSO. […] For controls, cultures were either untreated or treated with equivalent concentrations of vehicle (i.e., DMSO at final concentrations of 1:2,000-1:10,000). […] The cRNA to BDNF exon V was generated from PvuII-digested recombinant plasmid pRl 112-8 (Isackson et al., 1991, Neuron 6:937-948), yielding a 540 base length probe with 384 bases complementary to BDNF exon V-containing mRNA (Timmusk et al., 1993, Neuron 10:475-489). In situ hybridization was performed essentially as described by Lauterborn et al. (Lauterborn et al., 2000, J Neurosci 20(1):8-21; Lauterborn et al., 1994, Mol Cell Neurosci 5:46-62). Briefly, for in situ hybridization analyses, treatments were terminated by slice fixation with 4% paraformaldehyde in 0.1 M phosphate buffer, pH 7.2 (PPB). Cultures were re-sectioned parallel to the broad explant surface, slide-mounted, and processed for the in situ hybridization localization of BDNF mRNA using the ^35S-labeled BDNF cRNA probe described above. Following hybridization, the tissue was processed for film (Kodak Biomax) autoradiography. Quantification of in situ hybridization was performed essentially as described by Lauterborn et al. (Lauterborn et al., 2000, J Neurosci 20(1):8-21). Briefly, for quantification of in situ hybridization, hybridization densities were measured from film autoradiograms, with labeling densities calibrated relative to film images of ^14C-labeled standards (μCi/g), using the AIS system (Imaging Research Inc.). Significance was determined using the two-way ANOVA followed by Student-Newman-Keuls (SNK) or Student's t tests for individual comparisons.

GluR1 mRNA = GluR1 mRNA in situ hybridization in hippocampal slice cultures; type: cell-based, rat; settings: 48 h
GluR2 mRNA = GluR2 mRNA in situ hybridization in hippocampal slice cultures; type: cell-based, rat; settings: 48 h
mature BDNF protein = experiment: Western blot for mature BDNF protein in organotypic hippocampal cultures; type: cell-based, rat; settings: 24 h; CX614 50 μM
Description: Cultured hippocampal slices were prepared from rat pups (9 d postnatal) essentially as described by Lauterborn et al. (Lauterborn et al., 2000, J Neurosci 20(1):8-21). Slices were explanted onto Millicel-CM biomembrane inserts (Millipore, Bedford, Mass.; 6 slices/membrane) in a 6-well culture cluster plate (Corning, Cambridge, Mass.) containing sterile media (1 ml/well) consisting of minimum essential media, 30 mM dextrose, 30 mM HEPES, 5 mM Na2HCO3, 3 mM glutamine, 0.5 mM ascorbic acid, 2 mM CaCl2, 2.5 mM MgSO4, 1 mg/l insulin and 20% horse serum (pH 7.2; all reagents from Sigma, St. Louis, Mo.) and maintained for 10-18 d in a humidified incubator at 37° C. in 5% CO2. Media was changed three times/week. […]
For protein determinations, drug-treated and vehicle-treated hippocampal slice cultures were homogenized in RIPA (Radio-Immunoprecipitation Assay) buffer containing 10 mM Tris, pH 7.2, 158 mM NaCl, 1 mM EDTA, 0.1% SDS, 1% sodium deoxycholate, 1% triton-X, Complete Protease Inhibitor Cocktail (Roche Diagnostics; Indianapolis, Ind.), and Phosphatase Inhibitor Cocktails 1 and 2 (P2850 and 5726, Sigma), normalized for protein content using the Bio-Rad protein assay, and analyzed by Western blot analysis. […] Binding of anti-BDNF antibodies to BDNF was detected by enhanced chemiluminescence. Band densities were quantified using ImageQuant software (Molecular Dynamics, Sunnyvale, Calif.). […]

mGluR5 = mGluR5 (Homo sapiens, UniProt P41594); settings: cited from earlier work
[1] = tested on: rat fear-potentiated startle model of anxiety; settings: cited from earlier work
[2] = CX614 (20 μM in FIG. 6 legend, 50 μM in Example 6), MPEP 50 μM or both

Sequence of mGluR5 (P41594 21-1212): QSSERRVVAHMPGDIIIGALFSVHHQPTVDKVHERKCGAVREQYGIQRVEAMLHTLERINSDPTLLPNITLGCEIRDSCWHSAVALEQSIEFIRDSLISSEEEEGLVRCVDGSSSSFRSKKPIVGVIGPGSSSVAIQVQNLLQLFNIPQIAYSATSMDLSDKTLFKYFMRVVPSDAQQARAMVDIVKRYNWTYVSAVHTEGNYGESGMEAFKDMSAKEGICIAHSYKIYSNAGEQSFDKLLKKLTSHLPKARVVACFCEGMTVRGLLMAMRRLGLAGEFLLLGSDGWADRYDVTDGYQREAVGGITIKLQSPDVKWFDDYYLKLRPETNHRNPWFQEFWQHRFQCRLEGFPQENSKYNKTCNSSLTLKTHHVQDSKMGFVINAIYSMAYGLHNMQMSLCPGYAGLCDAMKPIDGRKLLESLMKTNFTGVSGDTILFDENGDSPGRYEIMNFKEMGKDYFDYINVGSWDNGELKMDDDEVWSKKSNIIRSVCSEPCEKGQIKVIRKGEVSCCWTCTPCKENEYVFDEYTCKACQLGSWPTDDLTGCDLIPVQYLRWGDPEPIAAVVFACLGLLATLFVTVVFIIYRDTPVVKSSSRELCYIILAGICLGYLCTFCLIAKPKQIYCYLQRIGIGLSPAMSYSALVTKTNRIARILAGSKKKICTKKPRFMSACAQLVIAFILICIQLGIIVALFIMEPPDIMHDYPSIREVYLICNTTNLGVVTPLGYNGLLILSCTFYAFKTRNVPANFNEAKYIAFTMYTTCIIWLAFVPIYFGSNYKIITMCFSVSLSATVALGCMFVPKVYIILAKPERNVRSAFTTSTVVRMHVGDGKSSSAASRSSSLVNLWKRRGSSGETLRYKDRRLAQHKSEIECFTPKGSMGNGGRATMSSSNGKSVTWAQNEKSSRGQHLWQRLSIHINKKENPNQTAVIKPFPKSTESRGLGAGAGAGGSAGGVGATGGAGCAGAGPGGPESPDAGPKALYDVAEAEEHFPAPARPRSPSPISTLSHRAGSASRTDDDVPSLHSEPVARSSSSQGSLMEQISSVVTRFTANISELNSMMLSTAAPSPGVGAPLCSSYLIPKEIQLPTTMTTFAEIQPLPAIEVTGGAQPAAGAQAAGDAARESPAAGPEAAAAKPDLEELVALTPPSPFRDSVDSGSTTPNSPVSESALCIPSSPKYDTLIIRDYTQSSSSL

O=C1c2cc3c(cc2OC2CCCN12)OCCO3 (stereo not shown) [CX614, 2H,3H,6aH-pyrrolidino[2″,1″-3′,2′]1,3-oxazino[6′,5′-5,4]benzo[e]1,4-dioxan-10-one]
BDNF cRNA labeling, granule cells (BDNF mRNA; 3 h, 10 μM CX614): modest increase | BDNF mRNA levels in CA1 stratum pyramidale, effect in words (BDNF mRNA; 3 h, CX614 50 μM with or without MPEP 50 μM): small but non-significant increased | increase in BDNF mRNA, hippocampal granule cells (stratum granulosum) (BDNF mRNA; 3 h, CX614 50 μM with or without MPEP 50 μM, vs control): 6.5 fold | BDNF mRNA, granule cells (BDNF mRNA; 3 h, CX614 10, 20 or 50 μM): increased by all three doses | BDNF mRNA, pyramidal cells of CA1 and CA3 (BDNF mRNA; 3 h, CX614 10, 20 or 50 μM): only increased with the 50 μM concentration; also recorded: only 50 μM CX614 elicited significant increases | BDNF cRNA labeling, granule cells (BDNF mRNA; 3 h, higher doses of CX614 (20, 50 μM)): more dramatic increases | BDNF mRNA levels, CA1 pyramidal cells (BDNF mRNA; 24 h, CX614 20 μM with or without MPEP 50 μM): small but non-significant increase | hybridization to BDNF mRNA, principal hippocampal cell layers, entorhinal cortex, neocortex (BDNF mRNA; 6 h): increased; also recorded: markedly elevated | hybridization to BDNF mRNA, principal hippocampal cell layers, entorhinal cortex, neocortex (BDNF mRNA; 24 h continuous treatment): still elevated above control densities; also recorded: begin to decline | reduction of GluR1 mRNA levels, CA1 stratum pyramidale (GluR1 mRNA; CX614 20 μM (FIG. 6 legend)): 40% | reduction of GluR1 mRNA levels, CA1 pyramidal cell layer, compared to control (GluR1 mRNA; CX614 50 μM (Example 6)): 40-45% | reduction of GluR2 mRNA levels, CA1 stratum pyramidale (GluR2 mRNA; CX614 20 μM (FIG. 6 legend)): ~50% | reduction of GluR2 mRNA levels, CA1 pyramidal cell layer, compared to control (GluR2 mRNA; CX614 50 μM (Example 6)): 40-45% | mature BDNF protein levels above control levels (mature BDNF protein): 133%

C=Cc1cncc(C#Cc2csc(C)n2)c1 [Iso et al. compound 59, 3-[(2-methyl-4-thiazoly)ethynyl]-5-vinylpyridine]
antagonistic potency relative to MTEP (mGluR5): 230 times

Cc1cccc(C#Cc2ccccc2)n1 [MPEP, 2-methyl-6-(phenylethynyl)pyridine]
BDNF mRNA levels in the granule cell layer / any field, effect in words (BDNF mRNA; 3 h, MPEP 50 μM alone): unaffected; also recorded: no effect in any field | GluR1 mRNA levels, CA1, effect in words (GluR1 mRNA; [2]): no significant effect | GluR2 mRNA levels, CA1, effect in words (GluR2 mRNA; [2]): no significant effect; also recorded: small but non-significant increase

Cc1nc(C#Cc2cccnc2)cs1 [MTEP, 3-[(2-methyl-1,3-thiazol-4-yl)ethynyl]pyridine]
potency relative to MPEP [1]: 5 fold
